Data from patent US9290457B2, “Substituted dihydropyrimidinones and their use as inhibitors of neutrophil elastase activity” (Boehringer Ingelheim International GmbH, priority 2014, dated 2016).
Converted amounts (≈) assume the structure as drawn.

Assays:
Caco-2 cells = assay: Drug transport across human Caco-2 cells; assay type: in vitro ADME; conditions: pH 7.2, 37° C.; for PEAB: apical-to-basal; for PEBA: basal-to-apical
Text: (§1) Assay for Determination of Drug Transport Across Human Caco-2 Cells
(§2) The assay provides information on the potential of a compound to pass the cell membrane, on the extent of oral absorption as well as on whether the compound is actively transported by uptake and/or efflux transporters. For the measurement of permeability across polarized, confluent human cancer colon carcinoma cells 2 (Caco-2) cell monolayers grown on permeable filter supports are used as the in vitro absorption model.
(§3) Apparent permeability coefficients (PE) of the compounds across the Caco-2 monolayers are measured (pH 7.2, 37° C.) in apical-to-basal (AB) (absorptive) and basal-to-apical (BA) (secretory) transport direction. AB permeability (PEAB) represents drug absorption from the intestine into the blood and BA permeability (PEBA) drug secretion from the blood back into the intestine via both passive permeability as well as active transport mechanisms mediated by efflux and uptake transporters that are expressed on the Caco-2 cells. The compounds are assigned to permeability/absorption classes by comparison of the AB permeabilities with the AB permeabilities of reference compounds with known in vitro permeability and oral absorption in the human. Identical or similar permeabilities in both transport directions indicate passive permeation, vectorial permeability points to additional active transport mechanisms. […] Active transport is concentration-dependently saturable.
(§4) Caco-2 cells (1-2*10^5 cells/cm^2 area) are seeded on filter inserts (Costar transwell polycarbonate or PET filters, 0.4 μm pore size) and cultured (DMEM) for 10 to 25 days. Compounds are dissolved in appropriate solvent (like DMSO, 1-20 mM stock solutions). Stock solutions are diluted with HTP-4 buffer (128.13 mM NaCl, 5.36 mM KCl, 1 mM MgSO4, 1.8 mM CaCl2, 4.17 mM NaHCO3, 1.19 mM Na2HPO4x7H2O, 0.41 mM NaH2PO4xH2O, 15 mM HEPES, 20 mM glucose, pH 7.2) to prepare the transport solutions (typically 10 μM compound, final DMSO<=0.5%). The transport solution (TL) is applied to the apical or basolateral donor side for measuring A-B or B-A permeability (3 filter replicates), respectively. The receiver side contains HTP-4 buffer supplemented with 2% BSA. Samples are collected at the start and end of experiment from the donor and at various time intervals for up to 2 hours also from the receiver side for concentration measurement by LC-MS/MS or scintillation counting. Sampled receiver volumes are replaced with fresh receiver solution.
(§5) The apparent permeability coefficients (PEAB and PEBA) of selected compounds in the Caco-2 drug transport assay described above are listed in Table 5.

Aqueous solubility = assay type: physicochemical; conditions: McIlvaine buffer pH 6.8, 2.5% DMSO; for Aqueous solubility: 24 h; for solubility at 24 h: McIlvaine buffer with 2.5% DMSO, aqueous buffer, kinetic from dmso stock
Procedure: Assay for Determination of Aqueous Solubility
Starting from a 10 mM DMSO stock solution, aliquots are diluted with acetonitrile/water (1/1) and McIlvaine buffer pH 6.8, respectively. After 24 h of shaking, the solutions or suspensions are filtered and analyzed by LC-UV. The amount dissolved in buffer is compared to the amount dissolved in the acetonitrile/water (1/1) solution. Solubility is measured from 0.001 to 0.125 mg/ml at a DMSO concentration of 2.5%. If more than 90% of the compound is dissolved in buffer, the value is marked with “>”.

[1] = Drug transport across human Caco-2 cells; assay type: in vitro ADME; conditions: human, Caco-2, pH 7.2, 37° C.; for Papp A→B at 10 μM: apical-to-basal, read-out: PEAB; for Papp B→A at 10 μM: basal-to-apical, read-out: PEBA
Text: as §1, §2, §3, §4, §5

cytochrome P450 2C8 = cytochrome P450 2C8 (Homo sapiens (Human), UniProt P10632); assay: Cytochrome P450 2C8 inhibition; assay type: in vitro ADME; conditions: human liver microsomes, Amodiaquine deethylation; read-out: IC50 CYP2C8 inhibition
cytochrome P450 2C8, sequence (P10632 whole entry): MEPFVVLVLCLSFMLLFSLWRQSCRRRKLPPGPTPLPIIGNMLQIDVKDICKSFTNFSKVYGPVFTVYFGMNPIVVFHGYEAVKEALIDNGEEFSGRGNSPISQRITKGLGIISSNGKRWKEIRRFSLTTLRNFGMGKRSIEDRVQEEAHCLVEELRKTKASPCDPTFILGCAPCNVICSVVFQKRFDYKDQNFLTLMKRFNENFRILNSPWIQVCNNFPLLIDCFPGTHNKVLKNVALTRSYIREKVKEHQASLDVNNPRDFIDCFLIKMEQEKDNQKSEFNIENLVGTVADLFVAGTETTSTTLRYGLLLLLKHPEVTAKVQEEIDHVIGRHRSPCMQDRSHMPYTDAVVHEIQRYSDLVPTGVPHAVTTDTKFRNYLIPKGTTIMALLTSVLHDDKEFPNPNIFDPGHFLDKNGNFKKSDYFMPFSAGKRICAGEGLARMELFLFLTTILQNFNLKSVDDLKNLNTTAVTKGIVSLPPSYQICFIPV
Procedure: Assay for Determination of Cytochrome P450 2C8 Inhibition
(§6) All assays are carried out on a robotic system in 96 well plates. The final incubation volume contains TRIS buffer (0.1 M), MgCl2 (5 mM), human liver microsomes (0.05 mg/ml), Amodiaquine (1 μM) and the test compound at five different concentrations or no compound (high control) in duplicate (e.g. highest concentration 10-50 μM with subsequent serial 1:4 dilutions). Following a short preincubation period, reactions are started with the cofactor (NADPH, 1 mM) and stopped by cooling the incubation down to 8° C. and subsequently by addition of one volume of acetonitrile. An internal standard solution—usually the stable isotope of the formed metabolite—is added after quenching of incubations. Peak area analyte (=metabolite formed) and internal standard is determined by LC-MS/MS. The resulting peak area ratio analyte to internal standard in these incubations is compared to a control activity containing no test compound.
(§7) If the inhibition of the reaction is already >50% at the lowest concentration of the test compound, the IC50 is assigned “<lowest concentration tested” (usually <0.4 μM). If the inhibition of the reaction is still <50% at the highest concentration of the test compound, the IC50 is assigned “>highest concentration tested” (usually >50 μM).

cytochrome P450 2C9 = cytochrome P450 2C9 (Homo sapiens (Human), UniProt P11712); assay: Cytochrome P450 2C9 inhibition; assay type: in vitro ADME; conditions: human liver microsomes, Diclofenac hydroxylation; read-out: IC50 CYP2C9 inhibition
cytochrome P450 2C9, sequence (P11712 whole entry): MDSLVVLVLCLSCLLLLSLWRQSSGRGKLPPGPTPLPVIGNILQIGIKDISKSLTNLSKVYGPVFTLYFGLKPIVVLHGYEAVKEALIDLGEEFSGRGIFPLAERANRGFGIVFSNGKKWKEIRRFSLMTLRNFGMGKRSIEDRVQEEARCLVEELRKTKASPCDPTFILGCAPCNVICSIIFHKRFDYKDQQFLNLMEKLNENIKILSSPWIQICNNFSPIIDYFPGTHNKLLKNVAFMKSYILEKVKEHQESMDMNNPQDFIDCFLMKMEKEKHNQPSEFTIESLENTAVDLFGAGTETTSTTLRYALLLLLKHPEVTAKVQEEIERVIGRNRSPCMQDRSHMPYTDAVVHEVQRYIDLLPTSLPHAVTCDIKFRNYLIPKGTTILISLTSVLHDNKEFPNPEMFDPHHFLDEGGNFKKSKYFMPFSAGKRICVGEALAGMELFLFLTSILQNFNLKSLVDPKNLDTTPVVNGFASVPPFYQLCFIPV
Procedure: Assay for Determination of Cytochrome P450 2C9 Inhibition
as §6, with “(0.1” for “(0.05”, “Diclofenac (10” for “Amodiaquine (1”
as §7

| Compound | PEAB (Caco-2 cells) | PEBA (Caco-2 cells) | Aqueous solubility (Aqueous solubility) | Papp A→B at 10 μM [1] | Papp B→A at 10 μM [1] | solubility at 24 h (Aqueous solubility) | IC50 (cytochrome P450 2C8) | IC50 (cytochrome P450 2C9) |
| --- | --- | --- | --- | --- | --- | --- | --- | --- |
| CC(=O)C1=C(C)N(c2cccc(C(F)(F)F)c2)C(=O)N(C)C1c1ccc(C#N)cc1C(=O)NC1CC1 (stereo not shown) [Example 1.8] | 4.4e-05 cm/s | 7.4e-05 cm/s | 0.076 mg/mL |  |  |  |  |  |
| CC(=O)C1=C(C)N(c2cccc(C(F)(F)F)c2)C(=O)N(C)C1c1ccc(C#N)cc1C(=O)NCC(C)(C)O (stereo not shown) [Example 1.22] |  |  |  | 7.8 ×10⁻⁶ cm/s | 81 ×10⁻⁶ cm/s | 65 µg/mL (≈ 123 µM) |  |  |
| CC(=O)C1=C(C)N(c2cccc(C(F)(F)F)c2)C(=O)N(C)C1c1ccc(C#N)cc1C(=O)N1CCn2ncnc2C1 (stereo not shown) [Example 1.73] |  |  |  | 5.1 ×10⁻⁶ cm/s | 92 ×10⁻⁶ cm/s | 73 µg/mL (≈ 130 µM) |  |  |
| CC(=O)C1=C(C)N(c2cccc(C(F)(F)F)c2)C(=O)N(C)[C@@H]1c1ccc(C#N)cc1-c1ccc(=O)n(C)c1 [Example 16, 4-[(R)-5-Acetyl-3,6-dimethyl-2-oxo-1-(3-trifluoromethyl-phenyl)-1,2,3,4-tetrahydro-pyrimidin-4-yl]-3-(1-methyl-6-oxo-1,6-dihydro-pyridin-3-yl)-benzonitrile] |  |  |  | 12 ×10⁻⁶ cm/s | 120 ×10⁻⁶ cm/s | 73 µg/mL (≈ 140 µM) | > 50 µM | > 50 µM |
| CC(=O)C1=C(C)N(c2cccc(C(F)(F)F)c2)C(=O)N(C)[C@@H]1c1ccc(C#N)cc1-c1ccn(C)c(=O)c1 [Example 17, 4-[(R)-5-Acetyl-3,6-dimethyl-2-oxo-1-(3-trifluoromethyl-phenyl)-1,2,3,4-tetrahydro-pyrimidin-4-yl]-3-(1-methyl-2-oxo-1,2-dihydro-pyridin-4-yl)-benzonitrile] |  |  |  | 11 ×10⁻⁶ cm/s | 114 ×10⁻⁶ cm/s | 62 µg/mL (≈ 119 µM) |  |  |

Other lines, results leading:

| PEAB (Caco-2 cells) | PEBA (Caco-2 cells) | Aqueous solubility (Aqueous solubility) | Papp A→B at 10 μM [1] | Papp B→A at 10 μM [1] | solubility at 24 h (Aqueous solubility) | IC50 (cytochrome P450 2C8) | IC50 (cytochrome P450 2C9) | Compound |
| --- | --- | --- | --- | --- | --- | --- | --- | --- |
| 1e-05 cm/s | 8.1e-05 cm/s | 0.070 mg/mL |  |  |  |  |  | CC(=O)C1=C(C)N(c2cccc(C(F)(F)F)c2)C(=O)N(C)C1c1ccc(C#N)cc1C(=O)NCC#N (stereo not shown) [Example 1.6] |
| 3.9e-05 cm/s | 7.8e-05 cm/s | 0.066 mg/mL |  |  |  |  |  | CC(=O)C1=C(C)N(c2cccc(C(F)(F)F)c2)C(=O)N(C)C1c1ccc(C#N)cc1C(=O)NCCF (stereo not shown) [Example 1.10] |
| 3.3e-05 cm/s | 8e-05 cm/s | 0.051 mg/mL |  |  |  | > 50 µM | > 50 µM | CNC(=O)c1cc(C#N)ccc1[C@@H]1C(C(C)=O)=C(C)N(c2cccc(C(F)(F)F)c2)C(=O)N1C [Example 13.1] |
